Measurements from US7005424B2, “Nucleic acid encoding an E1A gene product sensitizes HER-2/neu overexpressing cancer cells to chemotherapy” (priority 1996, dated 2006).
Starred links: 1 amine or outer side, 2 acyl side, 3 side chain; linkers in the order of their positions; H or OH if unused. Positions of bridges follow the written chain, without caps; N, C: chain ends. Non-standard residues stand in square brackets, D forms with d. Residues, ends and D or L forms follow the SMILES beside them. Chains are numbered I, II in the order given. Actinocin(9to1) = Cc1c2oc3c(C)ccc(C(=O)[*:1])c3nc-2c(C(=O)[*:2])c(N)c1=O; NMeV = CN[C@H](C(=O)O)C(C)C; Sar = CNCC(=O)O

Key:
[1] = in vivo; cited from earlier work
[2] = system: B.E1A1.Hy; experiment: MTT assay, taxol on rat fibroblasts with various neu and E1A expression; assay type: cell-based; conditions: taxol 0.1–10 μM; compared with B104-1-1, B.neo, B.E1A1.D1
Protocol: FIG. 30B. Effect of taxol (0.01–100 μM) on the cell growth of rat fibroblast with various HER-2/neu and E1A expression. […] Bars, SD.
In order to examine the effects of taxol on cell growth rat fibroblasts with various neu and E1A expression were grown in varying concentrations of taxol 0.01–100 μM. The cell lysates were subsequently run through 8% SDS-PAge and blotted with anti-p185 and anti-E1A antibodies (FIG. 30A). The effects on cell growth were measured using the MTT assay as described earlier.

[3] = system: MDA-MB-435 cells; experiment: MTT assay, Ad.E1A and Taxol; assay type: cell-based; conditions: low neu expressing cells
Protocol: The percentage of cell growth was calculated by defining the absorption of cells not treated with taxol or E1A as 100%. Bars, SD.
FIG. 34. […] The percentage of cell growth was calculated by defining the absorption of cells not treated with taxol or E1A as 100%. Bars, SD.
Taxol was given from 0.1 μM to 100 μM (FIGS. 33B and 33D).

Compound | dose excreted or detected intact in the urine [1] | inhibition of cell growth (MTT) [2] | sensitivity to taxol alone [3]
Cc1c2oc3c(C)ccc(C(=O)N[C@@H]4C(=O)N[C@H](C(C)C)C(=O)N5CCC[C@H]5C(=O)N(C)CC(=O)N(C)[C@@H](C(C)C)C(=O)O[C@@H]4C)c3nc-2c(C(=O)N[C@@H]2C(=O)N[C@H](C(C)C)C(=O)N3CCC[C@H]3C(=O)N(C)CC(=O)N(C)[C@@H](C(C)C)C(=O)O[C@@H]2C)c(N)c1=O [Actinomycin D] (I: T[dV]P[Sar][NMeV] / II: T[dV]P[Sar][NMeV]; ester I:1-I:C, II:1-II:C; linker I:N-II:N via Actinocin(9to1)) | 10% | – | –
CC(=O)O[C@H]1C(=O)[C@@]2(C)[C@H]([C@H](OC(=O)c3ccccc3)[C@]3(O)C[C@H](OC(=O)[C@H](O)[C@@H](NC(=O)c4ccccc4)c4ccccc4)C(C)=C1C3(C)C)[C@]1(OC(C)=O)CO[C@@H]1C[C@@H]2O [Taxol] | – | highest inhibition of cell growth | more sensitive to taxol alone
CC[C@]1(O)C[C@@H]2CN(CCc3c([nH]c4ccccc34)[C@@](C(=O)OC)(c3cc4c(cc3OC)N(C)[C@H]3[C@@](O)(C(=O)OC)[C@H](OC(C)=O)[C@]5(CC)C=CCN6CC[C@]43[C@@H]65)C2)C1 [Vinblastine] | Approximately 15% | – | –
